Source: patent publication US10738043B2, “GLS1 inhibitors for treating disease” (Board of Regents, The University of Texas System, priority 2015, dated 2020)
Like-named read-outs stand apart in the source and are kept apart here. Blank lines part the entries; values can stand above or below the molecule they belong to.

Columns and labels:
A549 cells = experiment: Proliferation Assay (A549 viability, Cell Titer Fluor, 72 hours); type: cell-based; conditions: read-out: EC50 against A549 cell proliferation
Protocol: A549 cells were routinely maintained in RPMI 1640 media (Gibco catalog number 11875-093) supplemented with 10% dialyzed fetal bovine serum using a humidified incubator (37° C., 5% CO2 and ambient O2). In preparation for the viability assay, cells were inoculated into 384-well black CulturPlates (Perkin Elmer) at a density of 1000 cells/well in a volume of 40 μl. Following a 24-hour incubation at 37° C., 5% CO2 and ambient 02, cells were treated with compound (10 μl) in a final DMSO concentration of 0.5% (v/v). The microplates were then incubated for 72 hours (37° C., 5% CO2 and ambient O2). Cell Titer Fluor (Promega) was subsequently added (10 μl of 6× reagent) and mixed for 15 minutes at room temperature. The plates were then incubated for 30 minutes (37° C., 5% CO2 and ambient O2) and fluorescence was subsequently read on the Perkin Elmer Envision plate reader. EC50 values were calculated using a four-parameter logistic curve fit.

[1] = target: T1, GLS1 (purified recombinant human GAC) (Homo sapiens, UniProt O94925); experiment: GLS1 Enzymatic Activity Assay (dual-coupled enzymatic assay); type: biochemical; conditions: 50 mM potassium phosphate, 1 mM glutamine, read-out: IC50 against GLS1
T1 sequence (O94925 55-598 isoform O94925-3 limits assumed): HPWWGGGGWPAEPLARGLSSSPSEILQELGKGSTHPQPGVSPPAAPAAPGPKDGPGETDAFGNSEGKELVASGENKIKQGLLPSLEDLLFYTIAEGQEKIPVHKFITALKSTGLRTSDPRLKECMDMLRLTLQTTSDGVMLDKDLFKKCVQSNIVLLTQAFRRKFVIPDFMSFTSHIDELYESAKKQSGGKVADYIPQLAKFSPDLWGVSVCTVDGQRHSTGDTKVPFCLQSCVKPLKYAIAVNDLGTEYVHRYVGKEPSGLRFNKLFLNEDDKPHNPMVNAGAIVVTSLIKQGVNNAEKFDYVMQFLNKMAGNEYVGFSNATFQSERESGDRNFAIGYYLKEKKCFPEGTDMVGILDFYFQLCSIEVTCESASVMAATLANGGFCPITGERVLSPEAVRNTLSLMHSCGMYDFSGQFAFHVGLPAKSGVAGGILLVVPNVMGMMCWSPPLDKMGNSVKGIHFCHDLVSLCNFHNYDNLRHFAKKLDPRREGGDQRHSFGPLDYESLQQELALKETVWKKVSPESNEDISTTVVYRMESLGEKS
Protocol: GLS1 Enzymatic Activity Assay
The inhibition of purified recombinant human GAC by varying concentrations of inhibitors is assessed via a dual-coupled enzymatic assay. The glutamate produced by the glutaminase reaction is used by glutamate oxidase to produce α-ketoglutarate, ammonia, and hydrogen peroxide, with this hydrogen peroxide subsequently being used by horseradish peroxidase to produce resorufin in the presence of Amplex UltraRed. The assay buffer consisted of 50 mM HEPES (pH 7.4), 0.25 mM EDTA and 0.1 mM Triton X-100. GAC was incubated with potassium phosphate (10 minutes at room temperature) prior to incubation with inhibitor (10 minutes at room temperature). The final reaction conditions were as follows: 2 nM GAC, 50 mM potassium phosphate, 100 mU/ml glutamate oxidase (Sigma), 1 mM glutamine (Sigma), 100 mU/ml horseradish peroxidase (Sigma), 75 μM Amplex UltraRed (Life Technologies), and 1% (v/v) DMSO. The production of resorufin was monitored on a Perkin Elmer Envision plate reader (excitation 530 nm, emission 590 nm) either in a kinetics or endpoint mode (at 20 minutes). IC50 values were calculated using a four-parameter logistic curve fit.

Molecule: NC(=O)c1nnc(N2CCC(c3ccc(NC(=O)Cc4ccccn4)nn3)C2)s1 (stereo not drawn) [Example 39, 5-(3-(6-(2-(pyridin-2-yl)acetamido)pyridazin-3-yl)pyrrolidin-1-yl)-1,3,4-thiadiazole-2-carboxamide]
- EC50 (A549 cells; Homo sapiens): 500 to 5000 nM
- IC50 [1]: 100 to 500 nM

Molecule: CNC(=O)c1cn(C2CCN(c3ccc(NC(=O)Cc4cccc(OC(F)(F)F)c4)nn3)C2)nn1 (stereo not drawn) [Example 6, N-Methyl-1-(1-(6-(2-(3-(trifluoromethoxy)phenyl)acetamido)pyridazin-3-yl)pyrrolidin-3-yl)-1H-1,2,3-triazole-4-carboxamide]
- EC50 (A549 cells; Homo sapiens): 500 to 5000 nM
- IC50 [1]: 100 to 500 nM

Molecule: O=C(Cc1cccc(OC(F)(F)F)c1)Nc1ccc(N2CCCC(n3cc(C(=O)NCc4ccccn4)nn3)C2)nn1 (stereo not drawn) [Example 7, N-(Pyridin-2-ylmethyl)-1-(1-(6-(2-(3-(trifluoromethoxy)phenyl)acetamido)pyridazin-3-yl)piperidin-3-yl)-1H-1,2,3-triazole-4-carboxamide]
- EC50 (A549 cells; Homo sapiens): 500 to 5000 nM
- IC50 [1]: 100 to 500 nM

Molecule: O=C(Cc1cccc(OC(F)(F)F)c1)Nc1ccc(N2CCC(c3nnc(NC(=O)CC4CCCCO4)s3)C2)nn1 (stereo not drawn) [Example 34, 2-(tetrahydro-2H-pyran-2-yl)-N-(5-(1-(6-(2-(3-(trifluoromethoxy)phenyl)acetamido)pyridazin-3-yl)pyrrolidin-3-yl)-1,3,4-thiadiazol-2-yl)acetamide]
- EC50 (A549 cells; Homo sapiens): < 100 nM
- IC50 [1]: < 100 nM

Molecule: N-(pyridin-2-ylmethyl)-5-(1-(6-(2-(3-(trifluoromethoxy)phenyl)acetamido)pyridazin-3-yl)pyrrolidin-3-yl)-1,3,4-thiadiazole-2-carboxamide-2,2,2-trifluoroacetate [Example 10]
- EC50 (A549 cells): 100 to 500 nM
- IC50 [1]: < 100 nM

Molecule: O=C(Cc1ccccn1)Nc1ccc([C@@H]2CCN(c3nnc(C(=O)NCc4cc(C(F)(F)F)ccn4)s3)C2)nn1 [Example 44, (R)-5-(3-(6-(2-(pyridin-2-yl)acetamido)pyridazin-3-yl)pyrrolidin-1-yl)-N-((4-(trifluoromethyl)pyridin-2-yl)methyl)-1,3,4-thiadiazole-2-carboxamide]
- EC50 (A549 cells; Homo sapiens): < 100 nM
- IC50 [1]: < 100 nM

Molecule: O=C(Cc1cccc(OC(F)(F)F)c1)Nc1ccc(N2CCC(c3nnc(NC(=O)Cc4noc5ccccc45)s3)C2)nn1 (stereo not drawn) [Example 36, 2-(benzo[d]isoxazol-3-yl)-N-(5-(1-(6-(2-(3-(trifluoromethoxy)phenyl)acetamido)pyridazin-3-yl)pyrrolidin-3-yl)-1,3,4-thiadiazol-2-yl)acetamide]
- EC50 (A549 cells; Homo sapiens): 100 to 500 nM
- IC50 [1]: < 100 nM

Molecule: O=C(Cc1ccccc1)Nc1ccc(N2CCCC(c3nnc(NC(=O)Cc4ccccc4)s3)C2)nn1 (stereo not drawn) [Example 2, 2-Phenyl-N-(6-(3-(5-(2-phenylacetamido)-1,3,4-thiadiazol-2-yl)piperidin-1-yl)pyridazin-3-yl)acetamide]
- EC50 (A549 cells; Homo sapiens): 100 to 500 nM
- IC50 [1]: < 100 nM

Molecule: O=C(Cc1ccccn1)Nc1ccc(N2CCC(c3nnc(NC(=O)Cc4ccccn4)s3)C2)nn1 (stereo not drawn) [Example 9, 2-(pyridin-2-yl)-N-(6-(3-(5-(2-(pyridin-2-yl)acetamido)-1,3,4-thiadiazol-2-yl)pyrrolidin-1-yl)pyridazin-3-yl)acetamide]
- EC50 (A549 cells; Homo sapiens): 500 to 5000 nM
- IC50 [1]: < 100 nM

Molecule: Cc1cccc(CNC(=O)c2nnc(N3CCC(c4ccc(NC(=O)Cc5cccc(C)n5)nn4)C3)s2)n1 (stereo not drawn) [Example 50, 5-(3-(6-(2-(6-methylpyridin-2-yl)acetamido)pyridazin-3-yl)pyrrolidin-1-yl)-N-((6-methylpyridin-2-yl)methyl)-1,3,4-thiadiazole-2-carboxamide]
- EC50 (A549 cells; Homo sapiens): < 100 nM
- IC50 [1]: < 100 nM

Molecule: O=C(Cc1cccc(OC(F)(F)F)c1)Nc1ccc(N2CCC(c3nnc(NC(=O)Cc4ccccn4)s3)C2)nn1 (stereo not drawn) [Example 17, 2-(pyridin-2-yl)-N-(5-(1-(6-(2-(3-(trifluoromethoxy)phenyl)acetamido)pyridazin-3-yl)pyrrolidin-3-yl)-1,3,4-thiadiazol-2-yl)acetamide 2,2,2-trifluoroacetate]
- EC50 (A549 cells; Homo sapiens): < 100 nM
- IC50 [1]: < 100 nM

Molecule: O=C(Cc1cccc(OC(F)(F)F)c1)Nc1ccc(N2CCC(n3cc(C(=O)NCc4ccccn4)nn3)C2)nn1 (stereo not drawn) [Example 8, N-(pyridin-2-ylmethyl)-1-(1-(6-(2-(3-(trifluoromethoxy)phenyl)acetamido)pyridazin-3-yl)pyrrolidin-3-yl)-1H-1,2,3-triazole-4-carboxamide]
- EC50 (A549 cells; Homo sapiens): 500 to 5000 nM
- IC50 [1]: 100 to 500 nM

Further lines, results first:

- EC50 (A549 cells; Homo sapiens): 100 to 500 nM
- IC50 [1]: < 100 nM
Molecule: O=C(Cc1cccc(OC(F)(F)F)c1)Nc1ccc(C2CCN(c3nnc(NC(=O)Cc4ccccn4)s3)C2)nn1 (stereo not drawn) [Example 21, 2-(pyridin-2-yl)-N-(5-(3-(6-(2-(3-(trifluoromethoxy)phenyl)acetamido)pyridazin-3-yl)pyrrolidin-1-yl)-1,3,4-thiadiazol-2-yl)acetamide]

- EC50 (A549 cells; Homo sapiens): 100 to 500 nM
- IC50 [1]: < 100 nM
Molecule: CC(=O)Nc1nnc(N2CCC(c3ccc(NC(=O)Cc4cccc(OC(F)(F)F)c4)nn3)C2)s1 (stereo not drawn) [Example 27, N-(6-(1-(5-acetamido-1,3,4-thiadiazol-2-yl)pyrrolidin-3-yl)pyridazin-3-yl)-2-(3-(trifluoromethoxy)phenyl)acetamide]

- EC50 (A549 cells): 100 to 500 nM
- IC50 [1]: < 100 nM
Molecule: 2-(thiazol-4-yl)-N-(5-(1-(6-(2-(3-(trifluoromethoxy)phenyl)acetamido)pyridazin-3-yl)pyrrolidin-3-yl)-1,3,4-thiadiazol-2-yl)acetamide [Example 31]

- EC50 (A549 cells; Homo sapiens): 100 to 500 nM
- IC50 [1]: < 100 nM
Molecule: O=C(Cc1ccccn1)Nc1nnc(C2CCCN(c3nnc(NC(=O)Cc4cccc(OC(F)(F)F)c4)s3)C2)s1 (stereo not drawn) [Example 26, 2-(pyridin-2-yl)-N-(5-(1-(5-(2-(3-(trifluoromethoxy)phenyl)acetamido)-1,3,4-thiadiazol-2-yl)piperidin-3-yl)-1,3,4-thiadiazol-2-yl)acetamide]

- EC50 (A549 cells; Homo sapiens): 100 to 500 nM
- IC50 [1]: < 100 nM
Molecule: CC(=O)Nc1nnc(C2CCN(c3ccc(NC(=O)Cc4cccc(OC(F)(F)F)c4)nn3)C2)s1 (stereo not drawn) [Example 29, N-(6-(3-(5-acetamido-1,3,4-thiadiazol-2-yl)pyrrolidin-1-yl)pyridazin-3-yl)-2-(3-(trifluoromethoxy)phenyl)acetamide]

- EC50 (A549 cells; Homo sapiens): < 100 nM
- IC50 [1]: < 100 nM
Molecule: O=C(Cc1cccc(OC(F)(F)F)c1)Nc1ccc(N2CCCC(c3nnc(NC(=O)Cc4ccccn4)s3)C2)nn1 (stereo not drawn) [Example 14, 2-(pyridin-2-yl)-N-(5-(1-(6-(2-(3-(trifluoromethoxy)phenyl)acetamido)pyridazin-3-yl)piperidin-3-yl)-1,3,4-thiadiazol-2-yl)acetamide]

- EC50 (A549 cells; Homo sapiens): < 100 nM
- IC50 [1]: < 100 nM
Molecule: Cc1cccc(CC(=O)Nc2ccc(C3CCN(c4nnc(C(=O)NCc5cc(C(F)(F)F)ccn5)s4)C3)nn2)n1 (stereo not drawn) [Example 49, 5-(3-(6-(2-(6-methylpyridin-2-yl)acetamido)pyridazin-3-yl)pyrrolidin-1-yl)-N-((4-(trifluoromethyl)pyridin-2-yl)methyl)-1,3,4-thiadiazole-2-carboxamide]

- EC50 (A549 cells; Homo sapiens): < 100 nM
- IC50 [1]: < 100 nM
Molecule: CNC(=O)c1nnc(N2CCC(c3ccc(NC(=O)Cc4cn(-c5cccc(OC(F)(F)F)c5)cn4)nn3)C2)s1 (stereo not drawn) [Example 40, N-methyl-5-(3-(6-(2-(1-(3-(trifluoromethoxy)phenyl)-1H-imidazol-4-yl)acetamido)pyridazin-3-yl)pyrrolidin-1-yl)-1,3,4-thiadiazole-2-carboxamide]

- EC50 (A549 cells; Homo sapiens): 100 to 500 nM
- IC50 [1]: < 100 nM
Molecule: Cn1cc(CC(=O)Nc2nnc(C3CCN(c4ccc(NC(=O)Cc5cccc(OC(F)(F)F)c5)nn4)C3)s2)cn1 (stereo not drawn) [Example 18, 2-(1-methyl-1H-pyrazol-4-yl)-N-(5-(1-(6-(2-(3-(trifluoromethoxy)phenyl)acetamido)pyridazin-3-yl)pyrrolidin-3-yl)-1,3,4-thiadiazol-2-yl)acetamide 2,2,2-trifluoroacetate]
